{"source": "paper PMC12022113", "about": "(Nature Communications, 2025)", "key": {"V1aR": {"test_system": "V1aR", "settings": "cited from earlier work"}, "V2R [1]": {"test_system": "V2R", "settings": "cited from earlier work"}, "OTR": {"test_system": "OTR", "settings": "cited from earlier work"}, "V2R Q174A mutant": {"target": "V2R Q174A mutant (Homo sapiens, UniProt P30518, Q174A)", "type": "binding"}, "[2]": {"settings": "in vivo; cited from earlier work"}, "V2R Q291A mutant": {"target": "V2R Q291A mutant (Homo sapiens, UniProt P30518, Q291A)", "type": "binding"}, "V2R Q119A mutant": {"target": "V2R Q119A mutant (Homo sapiens, UniProt P30518, Q119A)", "type": "binding"}, "V2R S315A mutant": {"target": "V2R S315A mutant (Homo sapiens, UniProt P30518, S315A)", "type": "binding"}, "V2R K116A mutant": {"target": "V2R K116A mutant (Homo sapiens, UniProt P30518, K116A)", "type": "binding"}, "V2R R104A mutant": {"target": "V2R R104A mutant (Homo sapiens, UniProt P30518, R104A)", "type": "binding"}, "V2R F287A mutant": {"target": "V2R F287A mutant (Homo sapiens, UniProt P30518, F287A)", "type": "binding"}, "V2R [3]": {"test_system": "V2R", "settings": "cited from earlier work", "remark": "listed apart in the source"}, "V2R D103A mutant": {"target": "V2R D103A mutant (Homo sapiens, UniProt P30518, D103A)", "type": "binding"}, "V2R I209A mutant": {"target": "V2R I209A mutant (Homo sapiens, UniProt P30518, I209A)", "type": "binding"}, "V2R E184A mutant": {"target": "V2R E184A mutant (Homo sapiens, UniProt P30518, E184A)", "type": "binding"}}, "note": "Entries after “also recorded” stand apart in the source; their conditions may differ."}
{"compound": "Cc1nc2c([nH]1)-c1ccccc1N(C(=O)c1ccc(NC(=O)c3ccccc3-c3ccccc3)cc1)CC2", "note": "[Conivaptan]", "values": [{"measurement": "affinity for V1aR", "setting": "V1aR", "result": "high affinity"}, {"measurement": "selectivity to V2R", "setting": "V2R [1]", "result": "not selective to V2R"}]}
{"compound": "CC[C@H](C)[C@@H]1C(=O)N[C@H](C2Cc3ccccc3C2)C(=O)N1[C@@H](C(=O)N1CCOCC1)c1coc(C)n1", "note": "[Retosiban]", "values": [{"measurement": "OTR antagonism", "setting": "OTR", "result": "potent OTR-selective non-peptide antagonist"}]}
{"compound": "Cc1ccccc1C(=O)Nc1ccc(C(=O)N2CCCC(O)c3cc(Cl)ccc32)c(C)c1", "note": "(centres unmarked) [TVP, 7-Chloro-5-hydroxy-1-[2-methyl-4-(2-methylbenzoylamino)benzoyl]-2,3,4,5-tetrahydro-1 H -1-benzazepine]", "values": [{"measurement": "effect of mutation on affinity", "setting": "V2R Q174A mutant", "result": "significant decrease in TVP affinity"}, {"measurement": "liver injury", "setting": "[2]", "result": "serious and potentially fatal liver injury"}, {"measurement": "urine volume", "setting": "[2]", "result": "increasing the amount of urine volume"}, {"measurement": "effect of mutation (loss or gain vs WT)", "setting": "V2R Q291A mutant", "result": "less than 5 fold"}, {"measurement": "effect of mutation on affinity", "setting": "V2R Q291A mutant", "result": "moderate change in binding affinity"}, {"measurement": "affinity for V2R", "setting": "V2R [1]", "result": "high affinity"}, {"measurement": "effect of mutation on affinity", "setting": "V2R Q119A mutant", "result": "significant gain in affinity"}, {"measurement": "effect of mutation (loss or gain vs WT)", "setting": "V2R S315A mutant", "result": "less than 5 fold"}, {"measurement": "effect of mutation on affinity", "setting": "V2R S315A mutant", "result": "very limited effect or were without effect"}, {"measurement": "effect of mutation on affinity", "setting": "V2R K116A mutant", "result": "moderate change in binding affinity; also recorded: less pronounced regarding TVP affinity, but was significant"}, {"measurement": "effect of mutation (loss or gain vs WT)", "setting": "V2R R104A mutant", "result": "less than 5 fold"}, {"measurement": "effect of mutation on affinity", "setting": "V2R R104A mutant", "result": "very limited effect or were without effect"}, {"measurement": "effect of mutation on affinity", "setting": "V2R F287A mutant", "result": "moderate change in binding affinity"}, {"measurement": "efficacy toward the Gs/cAMP pathway", "setting": "V2R [3]", "result": "inverse agonist"}, {"measurement": "inhibition of V2R-dependent signaling pathways", "setting": "V2R [3]", "result": "inhibit V2R-dependent signaling pathways"}, {"measurement": "effect of mutation (loss or gain vs WT)", "setting": "V2R D103A mutant", "result": "less than 5 fold"}, {"measurement": "effect of mutation (loss or gain vs WT)", "setting": "V2R I209A mutant", "result": "less than 5 fold"}, {"measurement": "effect of mutation on affinity", "setting": "V2R I209A mutant", "result": "very limited effect or were without effect"}, {"measurement": "effect of mutation (loss or gain vs WT)", "setting": "V2R E184A mutant", "result": "less than 5 fold"}, {"measurement": "effect of mutation on affinity", "setting": "V2R E184A mutant", "result": "very limited effect or were without effect"}]}
